Test results taken from ChEMBL document CHEMBL5715952 (Oncotarget, 2015).

Columns and labels:
[1] = Inhibition of PI3K/mTOR/ATM in human ANBL-6 cells assessed as reduction of cell growth incubated for 72 hrs by CellTiter 96 aqueous one solution cell proliferation assay; format: cell-based; settings: ANBL-6, 72 h
[2] = Inhibition of PI3K/mTOR/ATM in human RPMI-8226 cells assessed as reduction of cell growth incubated for 72 hrs by CellTiter 96 aqueous one solution cell proliferation assay; format: cell-based; settings: RPMI-8226, 72 h
[3] = Ratio of IC50 for inhibition of PI3K/mTOR/ATM in human ANBL6 cells assessed as reduction of cell viability to IC50 for inhibition of PI3K/mTOR/ATM in human ANBL6/BR resistant cells assessed as reduction of cell viability; settings: condition multiple myeloma
[4] = Ratio of IC50 for inhibition of PI3K/mTOR/ATM in human RPMI-8226 cells assessed as reduction of cell viability to IC50 for inhibition of PI3K/mTOR/ATM in human melphalan-resistant RPMI-8226 cells assessed as reduction of cell viability; settings: time 72 hrs; condition multiple myeloma
[5] = Inhibition of PI3K/mTOR/ATM in bortezomib Resistant human RPMI-8226 cells assessed as reduction of cell growth incubated for 72 hrs by CellTiter 96 aqueous one solution cell proliferation assay; format: cell-based; settings: Bortezomib-resistant RPMI-8226, 72 h
[6] = Inhibition of PI3K/mTOR/ATM in human U-266 cells assessed as reduction of cell growth incubated for 72 hrs by CellTiter 96 aqueous one solution cell proliferation assay; format: cell-based; settings: U-266, 72 h
[7] = Inhibition of PI3K/mTOR/ATM in Melphalan Resistant human RPMI-8226 cells assessed as reduction of cell growth incubated for 72 hrs by CellTiter 96 aqueous one solution cell proliferation assay; format: cell-based; settings: Melphalan-resistant RPMI-8226 cell
[8] = Inhibition of PI3K/mTOR/ATM in human bortezomib-resistant ANBL6 cells assessed as reduction of cell growth incubated for 72 hrs by CellTiter 96 aqueous one solution cell proliferation assay; format: cell-based
[9] = Ratio of IC50 for inhibition of PI3K/mTOR/ATM in human RPMI-8226 cells assessed as reduction of cell viability to IC50 for inhibition of PI3K/mTOR/ATM in human RPMI-8226/BR resistant cells assessed as reduction of cell viability; settings: condition multiple myeloma
[10] = Ratio of IC50 for inhibition of CSF1R/FLT3 in human RPMI-8226 cells assessed as reduction of cell viability to IC50 for inhibition of CSF1R/FLT3 in human melphalan-resistant RPMI-8226 cells assessed as reduction of cell viability; settings: time 72 hrs; condition multiple myeloma
[11] = Inhibition of CSF1R/FLT3 in human U-266 cells assessed as reduction of cell growth incubated for 72 hrs by CellTiter 96 aqueous one solution cell proliferation assay; format: cell-based; settings: U-266, 72 h
[12] = Inhibition of CSF1R/FLT3 in human bortezomib-resistant ANBL6 cells assessed as reduction of cell growth incubated for 72 hrs by CellTiter 96 aqueous one solution cell proliferation assay; format: cell-based
[13] = Ratio of IC50 for inhibition of CSF1R/FLT3 in human RPMI-8226 cells assessed as reduction of cell viability to IC50 for inhibition of CSF1R/FLT3 in human RPMI-8226/BR resistant cells assessed as reduction of cell viability; settings: condition multiple myeloma
[14] = Inhibition of CSF1R/FLT3 in Melphalan Resistant human RPMI-8226 cells assessed as reduction of cell growth incubated for 72 hrs by CellTiter 96 aqueous one solution cell proliferation assay; format: cell-based; settings: Melphalan-resistant RPMI-8226 cell
[15] = Ratio of IC50 for inhibition of CSF1R/FLT3 in human ANBL6 cells assessed as reduction of cell viability to IC50 for inhibition of CSF1R/FLT3 in human ANBL6/BR resistant cells assessed as reduction of cell viability; settings: condition multiple myeloma
[16] = Inhibition of CSF1R/FLT3 in human RPMI-8226 cells assessed as reduction of cell growth incubated for 72 hrs by CellTiter 96 aqueous one solution cell proliferation assay; format: cell-based; settings: RPMI-8226, 72 h
[17] = Inhibition of CSF1R/FLT3 in human ANBL-6 cells assessed as reduction of cell growth incubated for 72 hrs by CellTiter 96 aqueous one solution cell proliferation assay; format: cell-based; settings: ANBL-6, 72 h
[18] = Inhibition of CSF1R/FLT3 in bortezomib Resistant human RPMI-8226 cells assessed as reduction of cell growth incubated for 72 hrs by CellTiter 96 aqueous one solution cell proliferation assay; format: cell-based; settings: Bortezomib-resistant RPMI-8226, 72 h

| Structure (SMILES) | IC50 [1] [µM] | IC50 [2] [µM] | Ratio IC50 [3] | Ratio IC50 [4] | IC50 [5] [µM] | IC50 [6] [µM] | IC50 [7] [µM] | IC50 [8] [µM] | Ratio IC50 [9] | Ratio IC50 [10] | IC50 [11] [µM] | IC50 [12] [µM] | Ratio IC50 [13] | IC50 [14] [µM] | Ratio IC50 [15] | IC50 [16] [µM] | IC50 [17] [µM] | IC50 [18] [µM] |
| --- | --- | --- | --- | --- | --- | --- | --- | --- | --- | --- | --- | --- | --- | --- | --- | --- | --- | --- |
| O=c1cc(-c2cccc3c2Sc2ccccc2S3)oc(N2CCOCC2)c1 [KU-55933] | 10 | 10 | 1 | 1 | 10 | 10 | 10 | 10 | 1 | – | – | – | – | – | – | – | – | – |
| CN(C)CC(=O)N1CCC(c2ccc(NC(=O)c3nc(C#N)c[nH]3)c(C3=CCCCC3)c2)CC1 | – | – | – | – | – | – | – | – | – | 1 | 10 | 10 | 1 | 10 | 1 | 10 | 10 | 10 |
